Structures can show the parent of a compound that is named as a salt. Non-standard residues stand in square brackets, D forms with d. Residues, ends and D or L forms follow the SMILES beside them.
System: isolated mouse vas deferens
Assay type: cell-based
Settings: for Relative Potency (Morphine): RP=antilog[logD50(morphine)-logD50(test compound)]; for IC50: dose giving the response halfway between maximum response and minimum contraction, pulses at 0.1 Hz, mean of generally at least two cumulative dose response curves, read-out: Mean D50
Protocol: The compounds were examined for their ability to inhibit neurally evoked contractions of the isolated mouse vas deferens preparation (method of Hughes et al, Brain Research, 88 (1975) 296, using pulses at 0.1 Hz).
The heights of the five contractions that immediately preceded the addition of the first "dose" of test compound were measured and their mean calculated. The resultant mean contraction associated with a particular bath concentration of test compound was calculated from the heights of the 6th, 7th, 8th, 9th and 10th contractions after the addition of the appropriate "dose" of test compound, i.e. the five contractions that immediately preceded the subsequent "dose" or washout.
The mean control contraction height and the concentration related mean contraction heights were used to compute the constants in an equation based on the Langmuir Adsorption Isotherm which defined the dose response curve: [formula] where y=contraction (mm)
For each test compound the D50 was calculated, defined as the dose giving the resonse that is halfway between the maximum response and the minimum contraction of the tissue.
Generally at least two cumulative dose response curves were constructed and a mean D50 calculated.

SMILES: CSCC[C@H](NC(=O)[C@H](Cc1ccccc1)NC(=O)CNC(=O)[C@@H](C)NC(=O)[C@@H](N)Cc1ccc(O)cc1)C(=O)N[C@H](C(=O)O)[C@@H](C)O [Example 14, H.Tyr.D-Ala.Gly.Phe.Met.Thr.OH HCl] (H-Y[dA]GFMT-OH)
- Relative Potency (Morphine): 229
- IC50: 2.03 nM

SMILES: CN1CC[C@]23c4c5ccc(O)c4O[C@H]2[C@@H](O)C=C[C@H]3[C@H]1C5 [Morphine, reference compound]
- Reversal of the inhibition of contractions by naloxone: Reversal of the inhibition of the contractions was effected

SMILES: CC(C)C[C@H](NC(=O)[C@H](Cc1ccccc1)NC(=O)CNC(=O)[C@@H](C)NC(=O)[C@@H](N)Cc1ccc(O)cc1)C(=O)O [Example 4, H.Tyr.D-Ala.Gly.Phe.Leu.OH HCl]
- Relative Potency (Morphine): 267
- IC50: 1.74 nM

SMILES: CSCC[C@H](NC(=O)[C@H](Cc1ccccc1)NC(=O)CNC(=O)[C@@H](C)NC(=O)[C@@H](N)Cc1ccc(O)cc1)C(=O)O [5(a), H.Tyr.D-Ala.Gly.Phe.Met.OH HCl]
- Relative Potency (Morphine): 229
- IC50: 2.03 nM

SMILES: COC(=O)[C@H](CCSC)NC(=O)[C@H](Cc1ccccc1)NC(=O)CNC(=O)[C@@H](C)NC(=O)[C@@H](N)Cc1ccc(O)cc1 [5(b), H.Tyr.D-Ala.Gly.Phe.Met.OMe]
- Relative Potency (Morphine): 94
- IC50: 4.95 nM

Source: US4254106A, “Biologically active amides” (priority 1976, dated 1981)
